Test results reported in PubChem BioAssay (NCI).
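The compound was tested at five concentrations on cells cultured in 96-well plates, with a 48-hour exposure period. Abbreviation: GI50, concentration required for 50% inhibition of growth. TGI: concentration producing complete growth inhibition.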

How the values were obtained:
Assay in all cases: DTP human tumour cell line panel, 48 h
[1] = tested on: T-47D breast
[2] = tested on: U251 CNS
[3] = tested on: HCC-2998 colon
[4] = tested on: UACC-257 melanoma
[5] = tested on: NCI-H226 lung
[6] = tested on: SF-539 CNS
[7] = tested on: RXF 393 renal
[8] = tested on: OVCAR-8 ovarian
[9] = tested on: HL-60(TB) leukemia
[10] = tested on: SR leukemia
[11] = tested on: HS 578T breast
[12] = tested on: CAKI-1 renal
[13] = tested on: SK-OV-3 ovarian
[14] = tested on: MCF7 breast
[15] = tested on: ACHN renal
[16] = tested on: KM12 colon
[17] = tested on: OVCAR-3 ovarian
[18] = tested on: UACC-62 melanoma
[19] = tested on: MOLT-4 leukemia
[20] = tested on: SW-620 colon
[21] = tested on: SK-MEL-5 melanoma
[22] = tested on: K-562 leukemia
[23] = tested on: SK-MEL-28 melanoma
[24] = tested on: MDA-MB-231 breast
[25] = tested on: SNB-19 CNS
[26] = tested on: MDA-MB-435
[27] = tested on: OVCAR-4 ovarian
[28] = tested on: SK-MEL-2 melanoma
[29] = tested on: HT29 colon

SMILES: CNC(=O)c1cncc(/C=C/c2ccccc2C)c1
- GI50 [1]: > 25 µM
- TGI [1]: > 25 µM
- GI50 [2]: > 25 µM
- TGI [2]: > 25 µM
- GI50 [3]: > 25 µM
- TGI [3]: > 25 µM
- GI50 [4]: > 25 µM
- TGI [4]: > 25 µM
- GI50 [5]: > 25 µM
- TGI [5]: > 25 µM
- GI50 [6]: > 25 µM
- TGI [6]: > 25 µM
- GI50 [7]: > 25 µM
- TGI [7]: > 25 µM
- GI50 [8]: > 25 µM
- TGI [8]: > 25 µM
- GI50 [9]: > 25 µM
- TGI [9]: > 25 µM
- GI50 [10]: > 25 µM
- TGI [10]: > 25 µM
- GI50 [11]: > 25 µM
- TGI [11]: > 25 µM
- GI50 [12]: > 25 µM
- TGI [12]: > 25 µM
- GI50 [13]: > 25 µM
- TGI [13]: > 25 µM
- GI50 [14]: > 25 µM
- TGI [14]: > 25 µM
- GI50 [15]: > 25 µM
- TGI [15]: > 25 µM
- GI50 [16]: > 25 µM
- TGI [16]: > 25 µM
- GI50 [17]: > 25 µM
- TGI [17]: > 25 µM
- GI50 [18]: > 25 µM
- TGI [18]: > 25 µM
- GI50 [19]: > 25 µM
- TGI [19]: > 25 µM
- GI50 [20]: > 25 µM
- TGI [20]: > 25 µM
- GI50 [21]: > 25 µM
- TGI [21]: > 25 µM
- GI50 [22]: > 25 µM
- TGI [22]: > 25 µM
- GI50 [23]: > 25 µM
- TGI [23]: > 25 µM
- GI50 [24]: > 25 µM
- TGI [24]: > 25 µM
- GI50 [25]: > 25 µM
- TGI [25]: > 25 µM
- GI50 [26]: > 25 µM
- TGI [26]: > 25 µM
- GI50 [27]: > 25 µM
- TGI [27]: > 25 µM
- GI50 [28]: > 25 µM
- TGI [28]: > 25 µM
- GI50 [29]: > 25 µM
- TGI [29]: > 25 µM
